Reference: patent publication US8652492B2, “Wet granulation using a water sequestering agent” (Rigel Pharmaceuticals, Inc., priority 2007, dated 2014)

Assay: Bulk density (uncompressed, untapped powder)
Type: physicochemical
Conditions: Compound 1 as synthesized, cotton like fluffy agglomerates
Method: As used herein, the term “bulk density” refers to the uncompressed, untapped powder bulk density, as measured by pouring an excess of powder sample through a funnel into a smooth metal vessel (e.g., a 500 mL volume cylinder), scraping off the excess from the heap above the rim of the vessel, measuring the remaining mass of powder and dividing the mass by the volume of the vessel.
Three 500 g batches of Compound 1 powder blends (see Table 3) were prepared according to the following method. A KG-5 High Shear Granulator with an 8-inch impeller diameter was used to preblend all ingredients (except magnesium stearate) at low (155 rpm), medium (405 rpm), or high (600 rpm) impeller speeds with the chopper speed of 1200 rpm for 2 minutes. Water was added at a rate of 30 to 31.5 g/min to the powder mix. After the full amount of water was added, the mixture was blended for an additional 2 minutes. The wet granules were dried with the MiniGlatt Fluid Bed Dryer at 60° C. to targeted LODs and the granule texture, size, shape, stickiness, etc visually inspected. Drying at various temperatures and times are evaluated also. […] The final blends were checked for degradation by HPLC, and physical properties determined such as, Bulk Density, Tapped Density, Carr's Index, Hausner Ratio and Flow Index by Flodex. […]

Molecule `COc1cc(Nc2ncc(F)c(Nc3ccc4c(n3)N(COP(=O)([O-])[O-])C(=O)C(C)(C)O4)n2)cc(OC)c1OC.[Na+].[Na+]` [Compound 1, (6-(5-fluoro-2-(3,4,5-trimethoxyphenylamino)pyrimidin-4-ylamino)-2,2-dimethyl-3-oxo-2H-pyrido[3,2-b][1,4]oxazin-4(3H)-yl)methyl phosphate disodium salt] has a bulk density of 0.15 to 0.30 g/mL.
